# Tests used:
# Type in all cases: in vivo, rat
# Aquaporin-4 (AQP4) = assay: AQP4 expression in brain homogenate (ELISA), AlCl3 Alzheimer's model; settings: 5, 10 and 20 mg/kg, FIG. 1
# Description: Aquaporin-4 (AQP4) is a channel protein that plays a fundamental role in glymphatic system, a pathway for fluid exchange in the central nervous system, as well as a central figure in the pathophysiology of neurodegenerative diseases such as Alzheimer's disease (AD) and frontotemporal dementia. It plays an important role in maintaining cerebral fluid homeostasis by acting as a water channel protein. The AQP4 not only enables water permeability through the blood-brain barrier and also regulates water exchange between perivascular spaces and the rest of the glymphatic system (Szczygielski et al., Cerebral Microcirculation, Perivascular Unit, and Glymphatic System: Role of Aquaporin-4 as the Gatekeeper for Water Homeostasis, Front. Neurol. 12:767470, doi: 10.3389/fneur.2021.767470). Further, Astrocytes are known to maintain extracellular potassium concentrations in the brain by a process termed “potassium siphoning”. Changes in potassium channel function alters brain homeostasis leading to brain impairment. Water movement via the AQP4 water channel localized to astrocyte end-feet maintains osmotic balance and promotes effective potassium siphoning (Verkman A S, Aquaporins in Clinical Medicine, Annu. Rev. Med. 2012. 63:303-16). […] In the present study, the levels were determined using ELISA kit (Biogenuix Medsystems Pvt. Ltd.).
# [1] = system: frontal cortex and hippocampus; assay: Brain histopathology (H&E), AlCl3 Alzheimer's model; settings: 5 mg/kg, 10 mg/kg and 20 mg/kg
# Description: The brain histopathology was done for all the experimental groups. The brain tissue was fixed in 10% buffered neutral formalin solution. The tissue was embedded in paraffin, sectioned at […] stained with hematoxylin and eosin (H&E). The sections were examined under light microscope to study the architecture of the brain tissue, and then photomicrographs were taken (Fischer A H, Jacobson K A, Rose J, Zeller R. Hematoxylin and eosin staining of tissue and cell sections. CSH Protoc. 2008:1;pdb.prot4986. doi: 10.1101/pdb.prot4986).
# Aquaporin 9 (AQP9) = assay: AQP9 expression, reserpine Parkinson's model; settings: 5, 10 and 20 mg/kg, FIG. 9
# Description: The induction of Parkinson's disease and measurement of other parameters were done as per the reported protocol (Santos et al., Cognitive, motor and tyrosine hydroxylase temporal impairment in a model of parkinsonism induced by reserpine. Behav Brain Res. 2013; 253:68-77 and Shishehbore et al. A novel kinetic spectrophotometric method for the determination of dopamine in biological and pharmaceutical samples. J Chem. 2013; 2013:1-6). Induction of Parkinson's disease was done by administering Resperine, which inhibits the monoamine vesicular transporters, thus decreasing the levels of monoamine neurotransmitters in the brain. Following pretreatment for 14 days with Gingerenone A, the rat groups received subcutaneous injections of reserpine (4 mg/kg) for the final five days of the treatment regimen. Resperine (5 mg) was dissolved in 1 ml of 1% acetic acid and then diluted tenfold with distilled water to achieve a final concentration of 500 μg/ml. The normal control group received saline with 1% acetic acid for 14 days, administered from day 10 to day 14. Thirty minutes following the administration of reserpine on the 14th day, behavioural assessments were conducted using the Open Field test, Y Maze, and Catalepsy tests to evaluate changes. Rats administered with Carbidopa, a known drug for the management of Parkinson's disease was also used for comparison. […]
# Parkinson's disease = assay: Y-maze test in rats with reserpine-induced Parkinson's disease; settings: for No of arm entries / Spontaneous alterations (%): p.o. + Reserpine (4 mg/kg, s.c.), Y maze, Mean ± SEM, n = 6
# Description: The induction of Parkinson's disease and measurement of other parameters were done as per the reported protocol (Santos et al., Cognitive, motor and tyrosine hydroxylase temporal impairment in a model of parkinsonism induced by reserpine. Behav Brain Res. 2013; 253:68-77 and Shishehbore et al. A novel kinetic spectrophotometric method for the determination of dopamine in biological and pharmaceutical samples. J Chem. 2013; 2013:1-6). Induction of Parkinson's disease was done by administering Resperine, which inhibits the monoamine vesicular transporters, thus decreasing the levels of monoamine neurotransmitters in the brain. Following pretreatment for 14 days with Gingerenone A, the rat groups received subcutaneous injections of reserpine (4 mg/kg) for the final five days of the treatment regimen. Resperine (5 mg) was dissolved in 1 ml of 1% acetic acid and then diluted tenfold with distilled water to achieve a final concentration of 500 μg/ml. The normal control group received saline with 1% acetic acid […], administered from day 10 to day 14. Thirty minutes following the administration of reserpine on the 14th day, behavioural assessments were conducted using the Open Field test, Y Maze, and Catalepsy tests to evaluate changes. Rats administered with Carbidopa, a known drug for the management of Parkinson's disease was also used for comparison. Upon completion of the study, brains were harvested for biochemical analyses and histopathological studies. The experimental group is depicted in table 10.
# Y-maze test—In the Y-maze test, spontaneous alterations serve as an indicator of working short-term memory.
# The maze consisted of a triangular central area with three equilateral arms labeled A, B, and C, each measuring 35 cm in length, 25 cm in height, and 10 cm in width. During the test, each rat was placed in the central area, facing one of the arms. An entry was scored when all four paws of the rat entered an arm. Spontaneous alterations in behavior were defined as consecutive entries into different arms (e.g., ABC, BCA, or CAB, but not CAC). The maximum number of spontaneous alterations ([…]) and the percentage of spontaneous alterations (actual number of alterations divided by the maximum alterations, multiplied by 100) were calculated for each rat (Kraeuter et al., The Y-Maze for Assessment of Spatial Working and Reference Memory in Mice. Methods Mol Biol. 2019; 1916:105-111).
smiles,measurement,setting,value
COc1cc(CC/C=C/C(=O)CCc2ccc(O)c(OC)c2)ccc1O [Gingerenone A],AQP4 expression (in words),Aquaporin-4 (AQP4),increased AQP4 expression
same,histopathology of frontal cortex,"[1]; FIG. 5A, 6A, 7A","intact pyramidal cells having round to oval vesicular nucleus with abundant cytoplasm, neuroglial cells, granular cells and intact blood vessels with degenerated cells [mild to moderate] with dystrophic changes having shrunken and hyperchromatic nuclei and without inflammation"
same,"histopathology of hippocampus (CA1, CA2, CA3)","[1]; FIG. 5B-D, 6B-D, 7B-D",intact architecture consisting of Cornu Ammonis [CA] and dentate gyrus with compact layers of pyramidal cells having vesicular nuclei and moderate cytoplasm without shrinkage and necrosis
same,AQP9 expression (in words),Aquaporin 9 (AQP9),inhibited AQP9 expression
same,No of arm entries,Parkinson's disease; 5 mg/kg,9.37 ± 0.29
same,Spontaneous alterations (%),Parkinson's disease; 5 mg/kg,21.43 ± 1.08 %
same,No of arm entries,Parkinson's disease; 10 mg/kg,11.57 ± 0.92
same,Spontaneous alterations (%),Parkinson's disease; 10 mg/kg,26.87 ± 1.05 %
same,No of arm entries,Parkinson's disease; 20 mg/kg,12.09 ± 1.39
same,Spontaneous alterations (%),Parkinson's disease; 20 mg/kg,26.21 ± 0.98 %
same,working memory in Y-maze (in words),"Parkinson's disease; reserpine model, Table 12",significantly increase the working memory with increase in entries in the different arms with more number of alterations
